Measured values from US20230250060A1 (IFM Due, Inc., priority 2022, published 2023).
pEC50: −log10 of the molar value.

Target: T1, STING (Homo sapiens, UniProt Q86WV6, G230A/H232R/R293Q/R71H)
T1 construct: host or cells: THP1-Dual KO-IFNAR2 cells
Assay: STING reporter assay (luciferase) in THP1-Dual KO-IFNAR2 cells stimulated with 2′3′cGAMP
Type: cell-based
Conditions: 2′3′cGAMP 15 μM final, 24 h, luciferase reporter activity, read-out: Pharmaron, THP1_IFNAR2 STING 24 h Luci Normalized: GeoMean EC50
How it was run: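 THP1-Dual KO-IFNAR2 cells (2×10E6 cells/mL) exposed to compounds at 0.0017-100 μM final and stimulated with 2′3′cGAMP (15 μM final) delivered via Lipofectamine 2000. After 24 h at 37° C., secreted luciferase in supernatant read with QUANTI-Luc Plus; EC50 derived from luminescence.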

T1 sequence (Q86WV6 whole entry R71H/G230A/H232R/R293Q): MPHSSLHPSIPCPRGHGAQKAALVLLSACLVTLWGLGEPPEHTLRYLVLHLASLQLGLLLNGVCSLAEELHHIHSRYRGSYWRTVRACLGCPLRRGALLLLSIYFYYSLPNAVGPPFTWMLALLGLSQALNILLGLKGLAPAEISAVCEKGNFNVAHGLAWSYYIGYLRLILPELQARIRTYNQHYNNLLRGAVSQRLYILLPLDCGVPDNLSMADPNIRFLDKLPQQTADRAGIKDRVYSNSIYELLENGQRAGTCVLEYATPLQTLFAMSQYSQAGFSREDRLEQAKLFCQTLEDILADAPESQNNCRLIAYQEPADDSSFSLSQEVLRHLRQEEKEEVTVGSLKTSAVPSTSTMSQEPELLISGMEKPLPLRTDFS

Cn1cc(C(=O)Nc2c[nH]c3ccc(O[C@H]4C[C@@H](c5ccc(C(F)(F)F)nc5)C4)cc23)nn1 [Compound 217, 1-methyl-N-(5-(cis-3-(6-(trifluoromethyl)pyridin-3-yl)cyclobutoxy)-1H-indol-3-yl)-1H-1,2,3-triazole-4-carboxamide]
pEC50: 6.00 to 6.70

Cc1oncc1C(=O)Nc1c[nH]c2ccc(CCOc3ccc(C(F)(F)F)cc3)cc12 [Compound 118]
pEC50: 4.00 to 5.30

O=C(Nc1c[nH]c2ccc(COCc3ccc(C(F)(F)F)cc3)cc12)C12CC(c3ccccc3)(C1)C2 [Compound 130, 3-phenyl-N-(5-(((4-(trifluoromethyl)benzyl)oxy)methyl)-1H-indol-3-yl)bicyclo[1.1.1]pentane-1-carboxamide]
pEC50: 6.70 to 7.40

O=C(Nc1c[nH]c2ccc(CCOc3ccc(C(F)(F)F)cc3)cc12)C12CC(F)(C1)C2 [Compound 116, 3-fluoro-N-(5-(2-(4-(trifluoromethyl)phenoxy)ethyl)-1H-indol-3-yl)bicyclo[1.1.1]pentane-1-carboxamide]
pEC50: 6.00 to 6.70

O=C(Nc1c[nH]c2ccc(OCCc3ccc(C(F)(F)F)cc3)cc12)c1ccccn1 [Compound 124, N-(5-(4-(trifluoromethyl)phenethoxy)-1H-indol-3-yl)picolinamide]
pEC50: 5.30 to 6.00

O=C(Nc1c[nH]c2ccc(OCC[C@@H]3C[C@@H]4CN(CC(F)(F)F)C[C@@H]4C3)cc12)C12CC(C1)C2 [Compound 186, N-(5-(2-((3aR,5r,6aS)-2-(2,2,2-trifluoroethyl)octahydrocyclopenta[c]pyrrol-5-yl)ethoxy)-1H-indol-3-yl)bicyclo[1.1.1]pentane-1-carboxamide]
pEC50: 6.00 to 6.70

Cc1noc(C)c1C(=O)Nc1c[nH]c2ccc(OCCc3ccc(C(F)(F)F)cc3)cc12 [Compound 112, 3,5-dimethyl-N-(5-(4-(trifluoromethyl)phenethoxy)-1H-indol-3-yl)isoxazole-4-carboxamide]
pEC50: 6.00 to 6.70

O=C(Nc1c[nH]c2ccc(OCC[C@@H]3C[C@@H]4CN(CC(F)(F)F)C[C@@H]4C3)cc12)C1C2COCC21 (stereo partly drawn) [Compound 210, N-(5-(2-((3aR,5r,6aS)-2-(2,2,2-trifluoroethyl)octahydrocyclopenta[c]pyrrol-5-yl)ethoxy)-1H-indol-3-yl)-3-oxabicyclo[3.1.0]hexane-6-carboxamide]
pEC50: 6.00 to 6.70

O=C(Nc1c[nH]c2ccc(OCC[C@@H]3C[C@@H]4CN(CC(F)(F)F)C[C@@H]4C3)cc12)C1CC2(CCC2)C1 [Compound 157, N-(5-(2-((3aR,5r,6aS)-2-(2,2,2-trifluoroethyl)octahydrocyclopenta[c]pyrrol-5-yl)ethoxy)-1H-indol-3-yl)spiro[3.3]hexane-2-carboxamide]
pEC50: 6.00 to 6.70

Cn1nccc1C(=O)Nc1c[nH]c2ccc(OCc3ccc(C(F)(F)F)cc3)cc12 [Compound 162, 1-methyl-N-(5-((4-(trifluoromethyl)benzyl)oxy)-1H-indol-3-yl)-1H-pyrazole-5-carboxamide]
pEC50: 6.00 to 6.70

O=C(Nc1c[nH]c2ccc(OCCc3ccc(C(F)(F)F)cc3)cc12)C1CC2(CCC2)C1 [Compound 191, N-(5-(4-(trifluoromethyl)phenethoxy)-1H-indol-3-y)spiro[3.3]heptane-2-carboxamide]
pEC50: 6.70 to 7.40

Cn1nccc1C(=O)Nc1c[nH]c2ccc(O[C@H]3C[C@H](c4ccc(C(F)(F)F)cc4)C3)cc12 [Compound 237, 1-methyl-N-{5-[(1R,3R)-3-[4-(trifluoromethyl)phenyl]cyclobutoxy]-1H-indol-3-yl}-1H-pyrazole-5-carboxamide]
pEC50: 6.00 to 6.70

O=C(Nc1c[nH]c2ccc(CCOc3ccc(C(F)(F)F)cc3)cc12)c1ccn[nH]1 [Compound 160, N-(5-(2-(4-(trifluoromethyl)phenoxy)ethyl)-1H-indol-3-yl)-1H-pyrazole-5-carboxamide]
pEC50: 6.00 to 6.70

O=C(Nc1c[nH]c2ccc(CCOc3ccc(C(F)(F)F)cc3)cc12)C1CC2(CCC2)C1 [Compound 144, N-(5-(2-(4-(trifluoromethyl)phenoxy)ethyl)-1H-indol-3-yl)spiro[3.3]heptane-2-carboxamide]
pEC50: 6.70 to 7.40

O=C(Nc1c[nH]c2ccc(O[C@H]3C[C@@H](c4ccc(C(F)(F)F)nc4)C3)cc12)c1ccc(C(F)(F)F)cc1 [Compound 214, 4-(trifluoromethyl)-N-(5-(cis-3-(6-(trifluoromethyl)pyridin-3-yl)cyclobutoxy)-1H-indol-3-yl)benzamide]
pEC50: 6.70 to 7.40

Cn1cc(C(=O)Nc2c[nH]c3ccc(OCC[C@@H]4C[C@@H]5CN(CC(F)(F)F)C[C@@H]5C4)cc23)nn1 [Compound 242, N-(5-{2-[(3aR,5R,6aS)-2-(2,2,2-trifluoroethyl)octahydrocyclopenta[c]pyrrol-5-yl]ethoxy}-1H-indol-3-yl)-1-methyl-1H-1,2,3-triazole-4-carboxamide]
pEC50: 6.00 to 6.70

Cn1ccnc1C(=O)Nc1c[nH]c2ccc(CCOc3ccc(C(F)(F)F)cc3)cc12 [Compound 143, 1-methyl-N-(5-(2-(4-(trifluoromethyl)phenoxy)ethyl)-1H-indol-3-yl)-1H-imidazole-2-carboxamide]
pEC50: 6.70 to 7.40

O=C(Nc1c[nH]c2ccc(CCOc3ccc(C(F)(F)F)cc3)cc12)c1ccccn1 [Compound 196, N-(5-(2-(4-(trifluoromethyl)phenoxy)ethyl)-1H-indol-3-yl)picolinamide]
pEC50: 5.30 to 6.00

Cn1cc(C(=O)Nc2c[nH]c3ccc(O[C@H]4C[C@H](c5ccc(C(F)(F)F)cc5)C4)cc23)nn1 [Compound 128, 1-methyl-N-(5-((1r,3r)-3-(4-(trifluoromethyl)phenyl)cyclobutoxy)-1H-indol-3-yl)-1H-1,2,3-triazole-4-carboxamide]
pEC50: 6.00 to 6.70

O=C(Nc1c[nH]c2ccc(O[C@H]3C[C@H](c4ccc(C(F)(F)F)cc4)C3)cc12)c1nccs1 [Compound 232, N-{5-[(1R,3R)-3-[4-(trifluoromethyl)phenyl]cyclobutoxy]-1H-indol-3-yl}-1,3-thiazole-2-carboxamide]
pEC50: 6.70 to 7.40

O=C(Nc1c[nH]c2ccc(OCC[C@@H]3C[C@@H]4CN(CC(F)(F)F)C[C@@H]4C3)cc12)c1cncs1 [Compound 190, N-(5-(2-((3aR,5r,6aS)-2-(2,2,2-trifluoroethyl)octahydrocyclopenta[c]pyrrol-5-yl)ethoxy)-1H-indol-3-yl)thiazole-5-carboxamide]
pEC50: 6.00 to 6.70
